Paper PMC11207040, “Synthesis and Biological Studies of New Temporin A Analogs Containing Unnatural Amino Acids in Position 7” (Pharmaceutics, 2024)
Converted amounts (≈) assume the structure as drawn. “And” between values parts separate entries of the source, which are not always exact repeats. Identical values can stand only once. Like-named read-outs stand apart in the source and are kept apart here. Non-standard residues stand in square brackets, D forms with d. Residues, ends and D or L forms follow the SMILES beside them. Cit = NC(=O)NCCC[C@H](N)C(=O)O; Dap = NC[C@H](N)C(=O)O

Legend:
[1] = test system: Bacillus subtilis NBIMCC 3562; format: cell-based; conditions: for Inhibition effect, B. subtilis 3562: zone of peptide over zone of antibiotic x 100; for Inhibition zone, B. subtilis 3562: 20 µL per disc, 24 h
Procedure: (§1) The parent peptide Temporin A and the novel analogs were subjected to tests against model strains Escherichia coli NBIMCC 8785, Bacillus subtilis NBIMCC 3562, Arthrobacter oxydans NBIMCC 9333, Pseudomonas aeruginosa NBIMCC 3700, and Candida albicans NBIMCC 74, for the assessment of their antimicrobial activity. The strains were acquired from the National Bank for Industrial Microorganisms and Cell Cultures (NBIMCC, Bulgaria). The strain E. coli 8785 was cultured in Luria-Bertani broth (LB, HiMedia, Mumbai, India); B. subtilis 3562—in nutrient broth (NB, HiMedia, Mumbai, India); A. oxydans 9333; P. aeruginosa 3700—in meat peptone agar (MPA) medium; and C. albicans 74—in yeast mold (YM) medium. An incubator shaker ES-20/60 (Biosan, Latvia) was used for the cultivation and was set to 30 °C for B. subtilis 3562, A. oxydans 9333, and C. albicans 74; and 37 °C for E. coli 8785 and P. aeruginosa 3700, with a 24 h shaking period at 120 rpm. The microbial cultures were then adjusted to a turbidity of 0.5 McFarland using a Grant-bio DEN-1B densitometer (Grant Instruments, Royston, UK) for further use.
(§2) The disk-diffusion method was used as an additional method, with the aim of determining the percent inhibition of the tested samples against the model strains. Sterile plates with LB/NB/MPA/YM agar medium were inoculated on the surface with 100 μL from each microbial culture and incubated at 30 or 37 °C for 30 min, for the suspension to penetrate the agar. After that, sterile paper discs (HiMedia, Mumbai, India) with a diameter of 6 mm were soaked with 20 µL of the peptide solutions with concentrations of 1.4 mg/mL and 10 mg/mL and placed on the agar surface. Sterile paper discs with 10% EtOH/H2O were used as a negative control, and the corresponding strain antibiotic disks (HiMedia, Mumbai, India)—as a positive control. The incubation of the plate was performed at 30/37 °C for 24 h. The antimicrobial activity was analyzed by measuring the diameter of the inhibition zones in mm. The experiments were conducted in triplicates, and the average values for the percent of inhibition as a correlation between the inhibition zone of the peptides over the inhibition zone of the antibiotic multiplied by 100 were calculated.

[2] = test system: Escherichia coli NBIMCC 8785; format: cell-based; conditions: for Inhibition zone, E. coli 8785: 20 µL per disc, 24 h
Procedure: as §1, §2

[3] = test system: Candida albicans NBIMCC 74; format: cell-based; conditions: for Inhibition zone, C. albicans 74: 20 µL per disc, 24 h
Procedure: as §1, §2

[4] = test system: Arthrobacter oxydans NBIMCC 9333; format: cell-based; conditions: for Inhibition effect, A. oxydans 9333: zone of peptide over zone of antibiotic x 100; for Inhibition zone, A. oxydans 9333: 20 µL per disc, 24 h
Procedure: as §1, §2

[5] = test system: Pseudomonas aeruginosa NBIMCC 3700; format: cell-based; conditions: for Inhibition effect, P. aeruginosa 3700: zone of peptide over zone of antibiotic x 100; for Inhibition zone, P. aeruginosa 3700: 20 µL per disc, 24 h
Procedure: as §1, §2

[6] = test system: MCF-12F cells; experiment: MTT antiproliferative assay, MCF-12F; format: cell-based, human; conditions: 72 h, non-tumorigenic cell line, read-out: Mean IC50 ± SD, MCF-12F
Procedure: (§3) The cell lines BALB 3T3 (mouse embryonic fibroblasts) and MCF-12F (human breast epithelial cells) were used as models for healthy tissue. The MCF-7 and MDA-MB-231 cell lines were used as in vitro models for luminal A- and basal B-type breast cancer, respectively. Cell lines were obtained from the American Type Cultures Collection (ATCC, Manassas, VA, USA). Cells were cultured in Dulbecco modified Eagle’s medium (DMEM) supplemented with 10% fetal bovine serum (FBS), 100 U/mL penicillin, and 0.1 mg/mL streptomycin (Sigma-Aldrich, Schnelldorf, Germany) in an incubator at 37 °C, 5% CO2 and 95% humidity. Plastic flasks 75 cm^2 (Biologix, Lenexa, KS, USA) were used to grow the cells.
(§4) The antiproliferative activity testing was performed on cell cultures using the MTT-dye reduction assay. This assay is based on the metabolism of MTT to insoluble formazan by mitochondrial reductases. The formazan concentration can be determined spectrophotometrically. The measured absorption is an indicator of cell viability. Cell lines (MCF-12F, MCF-7 and MDA-MB-231) were used in the experiments. Cells were plated at a density of 1 × 10^3 cells/100 µL in each well of 96-well microplates and allowed to adhere for 24 h before treatment with test compounds. A concentration range from 4 to 1000 μM was applied for 72 h. The formazan absorption was registered using a microplate reader at λ = 540 nm. Antiproliferative activities were expressed as IC50 values (concentrations required for 50% inhibition of cell growth).

[7] = test system: MDA-MB-231 cells; experiment: MTT antiproliferative assay, MDA-MB-231; format: cell-based, human; conditions: for IC50: MTT, 72 h, read-out: Mean IC50 ± SD, MDA-MB-231; for SI (Selectivity Index), MDA-MB-231: SI = IC50 MCF-12F/IC50 tumor cells
Procedure: as §3, §4

[8] = test system: MCF-7 cells; experiment: MTT antiproliferative assay, MCF-7; format: cell-based, human; conditions: for IC50: MTT, 72 h, read-out: Mean IC50 ± SD, MCF-7; for SI (Selectivity Index), MCF-7: SI = IC50 MCF-12F/IC50 tumor cells
Procedure: as §3, §4

[9] = test system: Arthrobacter oxydans NBIMCC 9333; format: cell-based; conditions: 24 h
Procedure: as §1
(§5) The minimal inhibitory concentration (MIC) of the peptides was determined using the broth dilution method. Stock solutions of the peptides with a concentration of 10 mg/mL in 10% EtOH/H2O were prepared. Suspensions of the bacteria in the corresponding media were added to 96-well U-shaped bottom polystyrene plates (Deltalab S.L., Spain) and exposed to the peptide in the concentration range from 0 to 320 µg/mL, and a 10% EtOH/H2O control, diluted using the same scheme as the peptides, was also used. The plates were then incubated under aerobic conditions at the corresponding temperature for 24 h. The MIC (µg/mL) was assumed as the lowest concentration of the antimicrobial, where there was visible inhibition of the strain. The absorbance was measured at 630 nm (Microplate reader PKL PPC 142, Paramedical srl, Salerno, Italy). To determine the minimal bactericidal concentration (MBC) and minimal fungicidal concentration (MFC), 10 μL from concentrations greater than or equal to the MIC was placed on the corresponding solid nutrient medium. The Petri dishes were then incubated at 30 or 37 °C for 24 h. All experiments were conducted in a triplicate.

[10] = 3T3 NRU cytotoxicity/phototoxicity test; format: cell-based, mouse; conditions: mouse; for CC50: cytotoxicity, no irradiation, BALB 3T3 clone A31, Neutral Red uptake, read-out: Mean CC50 ± SD, −Irr; for CC50 at 24 h: phototoxicity, irradiated 2.4 J/cm^2, BALB 3T3 clone A31, Neutral Red uptake, read-out: Mean CC50 ± SD, +Irr
Procedure: as §3
(§6) The cytotoxicity/phototoxicity testing was performed as described by the OECD Guidelines for the Testing of Chemicals, Section 4, Test No. 432: In Vitro 3T3 NRU Phototoxicity Test. BALB 3T3, clone A31 cells were grown in 75 cm^2 tissue culture flasks in DMEM high-glucose (4.5 g/L), 10% FBS, and antibiotics at 37.5 °C, in a humidified atmosphere under 5% CO2. Cells were plated at 1 × 10^4 cells / 100 μL culture medium in each well of 96-well microplates and allowed to adhere for 24 h before treatment with test compounds. Peptides were dissolved in DMSO and diluted with culture medium to working concentrations from 4 to 1000 μM. In phototoxicity tests, 96-well plates were irradiated (+Irr) with a dose of 2.4 J/cm^2 using an artificial solar light simulator Helios-iO (SERIC Ltd., Tokyo, Japan), and the cells were incubated for an additional 24 h. After treatment with a Neutral Red medium, washing, and application of the NR Desorb solution, the absorption was measured on a microplate reader at a wavelength of 540 nm. Cytotoxicity/phototoxicity was expressed as CC50 values (concentrations required for 50% cytotoxicity).

[11] = test system: BALB 3T3 clone A31 cells; experiment: 3T3 NRU cytotoxicity/phototoxicity test; format: cell-based, mouse; conditions: PIF = CC50 −Irr/CC50 +Irr; PIF < 2 = not phototoxic
Procedure: as §3, §6

[12] = test system: Bacillus subtilis NBIMCC 3562; format: cell-based; conditions: broth dilution, 0 to 320 µg/mL, 24 h; NI = no inhibition monitored
Procedure: as §1, §5

[13] = 10 µg/disk, positive control on the plate of the peptide of that line

O=C(N[C@H](CO)[C@H](O)c1ccc([N+](=O)[O-])cc1)C(Cl)Cl [Chloramphenicol, reference compound]
Inhibition zone, B. subtilis 3562, antibiotic control ([1]; 30 µg/disk, positive control on the plate of the peptide of that line): 26.0 mm and 25.0 mm

CC[C@H](C)[C@H](NC(=O)CNC(=O)[C@H](CO)NC(=O)[C@H](CC(C)C)NC(=O)[C@@H](NC(=O)[C@H](CCCNC(N)=O)NC(=O)CNC(=O)[C@@H](NC(=O)[C@H](CC(C)C)NC(=O)[C@@H]1CCCN1C(=O)[C@H](CC(C)C)NC(=O)[C@@H](N)Cc1ccccc1)[C@@H](C)CC)C(C)C)C(=O)N[C@@H](CC(C)C)C(N)=O [DTCit, FLPLIG-Cit-VLSGIL-NH2] (H-FLPLIG[Cit]VLSGIL-NH2; N-terminus assumed)
Inhibition zone, E. coli 8785 ([2]; peptide 1.4 mg/mL): 0.0 mm
Inhibition zone, E. coli 8785 ([2]; peptide 10 mg/mL): 0.0 mm
Inhibition zone, C. albicans 74 ([3]; peptide 1.4 mg/mL): 0.0 mm
Inhibition zone, C. albicans 74 ([3]; peptide 10 mg/mL): 0.0 mm
Inhibition effect, B. subtilis 3562 ([1]; 1.4 mg/mL): 0.0%
Inhibition effect, B. subtilis 3562 ([1]; 10 mg/mL): 0.0%
Inhibition zone, B. subtilis 3562 ([1]; peptide 1.4 mg/mL): 0.0 mm
Inhibition zone, B. subtilis 3562 ([1]; peptide 10 mg/mL): 0.0 mm
Inhibition effect, A. oxydans 9333 ([4]; 1.4 mg/mL): 0.0%
Inhibition effect, A. oxydans 9333 ([4]; 10 mg/mL): 0.0%
Inhibition zone, A. oxydans 9333 ([4]; peptide 1.4 mg/mL): 0.0 mm
Inhibition zone, A. oxydans 9333 ([4]; peptide 10 mg/mL): 0.0 mm
Inhibition effect, P. aeruginosa 3700 ([5]; 1.4 mg/mL): 0.0%
Inhibition effect, P. aeruginosa 3700 ([5]; 10 mg/mL): 0.0%
Inhibition zone, P. aeruginosa 3700 ([5]; peptide 1.4 mg/mL): 0.0 mm
Inhibition zone, P. aeruginosa 3700 ([5]; peptide 10 mg/mL): 0.0 mm
IC50 [6]: 301 ± 10.5 µM
IC50 [7]: 335 ± 4.37 µM
SI (Selectivity Index), MDA-MB-231 [7]: 0.90
IC50 [8]: 150 ± 6.94 µM
SI (Selectivity Index), MCF-7 [8]: 2.01
MIC, A. oxydans 9333 ([9]; broth dilution, 0 to 320 µg/mL, NI = no inhibition monitored): 160 µg/mL (≈ 114 µM)
MBC, A. oxydans 9333 ([9]; plated from concentrations ≥ MIC): 160 µg/mL (≈ 114 µM)
CC50 [10]: 356 ± 7.64 µM
CC50 at 24 h [10]: 332 ± 12.3 µM
PIF (photo irritation factor) [11]: 1.07

CC[C@H](C)[C@H](NC(=O)CNC(=O)[C@H](CO)NC(=O)[C@H](CC(C)C)NC(=O)[C@@H](NC(=O)[C@H](CN)NC(=O)CNC(=O)[C@@H](NC(=O)[C@H](CC(C)C)NC(=O)[C@@H]1CCCN1C(=O)[C@H](CC(C)C)NC(=O)[C@@H](N)Cc1ccccc1)[C@@H](C)CC)C(C)C)C(=O)N[C@@H](CC(C)C)C(N)=O [DTDap, FLPLIG-Dap-VLSGIL-NH2] (H-FLPLIG[Dap]VLSGIL-NH2; N-terminus assumed)
Inhibition zone, E. coli 8785 ([2]; peptide 1.4 mg/mL): 0.0 mm
Inhibition zone, E. coli 8785 ([2]; peptide 10 mg/mL): 0.0 mm
Inhibition zone, C. albicans 74 ([3]; peptide 1.4 mg/mL): 0.0 mm
Inhibition zone, C. albicans 74 ([3]; peptide 10 mg/mL): 0.0 mm
Inhibition effect, B. subtilis 3562 ([1]; 1.4 mg/mL): 0.0%
Inhibition effect, B. subtilis 3562 ([1]; 10 mg/mL): 0.0%
Inhibition zone, B. subtilis 3562 ([1]; peptide 1.4 mg/mL): 0.0 mm
Inhibition zone, B. subtilis 3562 ([1]; peptide 10 mg/mL): 0.0 mm
Inhibition effect, A. oxydans 9333 ([4]; 1.4 mg/mL): 0.0%
Inhibition effect, A. oxydans 9333 ([4]; 10 mg/mL): 53.0%
Inhibition zone, A. oxydans 9333 ([4]; peptide 1.4 mg/mL): 0.0 mm
Inhibition zone, A. oxydans 9333 ([4]; peptide 10 mg/mL): 9.8 ± 0.3 mm
Inhibition effect, P. aeruginosa 3700 ([5]; 1.4 mg/mL): 0.0%
Inhibition effect, P. aeruginosa 3700 ([5]; 10 mg/mL): 51.8%
Inhibition zone, P. aeruginosa 3700 ([5]; peptide 1.4 mg/mL): 0.0 mm
Inhibition zone, P. aeruginosa 3700 ([5]; peptide 10 mg/mL): 8.8 ± 0.8 mm
IC50 [6]: 630 ± 9.97 µM
IC50 [7]: 581 ± 17.5 µM
SI (Selectivity Index), MDA-MB-231 [7]: 1.09
IC50 [8]: 473 ± 16.2 µM
SI (Selectivity Index), MCF-7 [8]: 1.33
MIC, B. subtilis 3562 [12]: 320 µg/mL (≈ 241 µM)
CC50 [10]: 924 ± 21.6 µM
CC50 at 24 h [10]: 933 ± 20.7 µM
PIF (photo irritation factor) [11]: 0.99

CNC(C)C1CCC(N)C(OC2C(N)CC(N)C(OC3OCC(C)(O)C(NC)C3O)C2O)O1 (stereo not shown) [Gentamicin, reference compound]
Inhibition zone, E. coli 8785, antibiotic control [2, 13]: 18.0 mm
Inhibition zone, P. aeruginosa 3700, antibiotic control [5, 13]: 17.0 mm and 16.0 mm

CCC(C)n1ncn(-c2ccc(N3CCN(c4ccc(OCC5COC(Cn6cncn6)(c6ccc(Cl)cc6Cl)O5)cc4)CC3)cc2)c1=O (stereo not shown) [Itraconazole, reference compound]
Inhibition zone, C. albicans 74, antibiotic control [3, 13]: 15.0 mm and 14.0 mm
